Test system: SYO-1 complex spheroid growth, percent test/control
Assay: Anticancer human tumor SYO-1 cell line growth inhibition [Asc];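 note: compound exposure lasted 7 days after spheroids grew 3 days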;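 for viability, T/C: 100% = DMSO vehicle control viability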
Settings: for IC50: curve of first compound; for viability, T/C: stronger effect = lower value
In short: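 Concentration series start at each agent's clinical Cmax, or at 10 microM when none is established, and drop in half-log steps; agents are applied alone or together to complex spheroids built with HUVEC and hMSC.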

Q: How did the IC50 (second compound 0.0316 µM) turn out when `O=C(c1cc(Cc2n[nH]c(=O)c3ccccc23)ccc1F)N1CCN(C(=O)C2CC2)CC1` + Cc1c(S(C)(=O)=O)c(-c2cc(F)cc(N3CCN(c4ccc(NS(=O)(=O)c5ccc(NC(CCN6CCC(C(=O)OCCCP(=O)(O)O)CC6)CSc6ccccc6)c(S(=O)(=O)C(F)(F)F)c5)cc4)CC3)c2)c(-c2ccc(Cl)cc2)n1C(C)C was run?
A: 1840 nM

Q: What about the IC50 (second compound 0.1 µM) of the same molecule?
A: 1850 nM

Q: What about the IC50 (second compound 0.316 µM) of the same molecule?
A: 1630 nM

Q: What about the IC50 (second compound 1 µM) of the same molecule?
A: 1640 nM

Q: And the IC50 (second compound 3.16 µM)?
A: 1170 nM

Q: And the IC50 (second compound 10 µM)?
A: 613 nM

Q: What about the viability, T/C (second compound 0.0316 µM, first compound 0.0316 µM) of the same molecule?
A: 106%

Q: What about the viability, T/C (second compound 0.0316 µM, first compound 0.1 µM) of the same molecule?
A: 90.1%

Q: What about the viability, T/C (second compound 0.0316 µM, first compound 0.316 µM) of the same molecule?
A: 96.5%

Q: And the viability, T/C (second compound 0.0316 µM, first compound 1 µM)?
A: 85.1%

Q: And the viability, T/C (second compound 0.0316 µM, first compound 3.16 µM)?
A: 18.6%

Q: What about the viability, T/C (second compound 0.0316 µM, first compound 10 µM) of the same molecule?
A: 4.21%

Q: What about the viability, T/C (second compound 0.1 µM, first compound 0.0316 µM) of the same molecule?
A: 105%

Q: What about the viability, T/C (second compound 0.1 µM, first compound 0.1 µM) of the same molecule?
A: 93.3%

Q: And the viability, T/C (second compound 0.1 µM, first compound 0.316 µM)?
A: 89.7%

Q: And the viability, T/C (second compound 0.1 µM, first compound 1 µM)?
A: 92.5%

Q: And the viability, T/C (second compound 0.1 µM, first compound 3.16 µM)?
A: 13.1%

Q: What about the viability, T/C (second compound 0.1 µM, first compound 10 µM) of the same molecule?
A: 3.38%

Q: What about the viability, T/C (second compound 0.316 µM, first compound 0.0316 µM) of the same molecule?
A: 95.6%

Q: And the viability, T/C (second compound 0.316 µM, first compound 0.1 µM)?
A: 92%

Q: What about the viability, T/C (second compound 0.316 µM, first compound 0.316 µM) of the same molecule?
A: 95.7%

Q: What about the viability, T/C (second compound 0.316 µM, first compound 1 µM) of the same molecule?
A: 82.2%

Q: And the viability, T/C (second compound 0.316 µM, first compound 3.16 µM)?
A: 6.13%

Q: And the viability, T/C (second compound 0.316 µM, first compound 10 µM)?
A: 2.3%

Q: What about the viability, T/C (second compound 1 µM, first compound 0.0316 µM) of the same molecule?
A: 89.7%

Q: What about the viability, T/C (second compound 1 µM, first compound 0.1 µM) of the same molecule?
A: 108%

Q: What about the viability, T/C (second compound 1 µM, first compound 0.316 µM) of the same molecule?
A: 87.2%

Q: And the viability, T/C (second compound 1 µM, first compound 1 µM)?
A: 84.9%

Q: What about the viability, T/C (second compound 1 µM, first compound 3.16 µM) of the same molecule?
A: 4.13%

Q: What about the viability, T/C (second compound 1 µM, first compound 10 µM) of the same molecule?
A: 1.66%

Q: What about the viability, T/C (second compound 3.16 µM, first compound 0.0316 µM) of the same molecule?
A: 93.4%

Q: What about the viability, T/C (second compound 3.16 µM, first compound 0.1 µM) of the same molecule?
A: 88.7%

Q: And the viability, T/C (second compound 3.16 µM, first compound 0.316 µM)?
A: 83.9%

Q: And the viability, T/C (second compound 3.16 µM, first compound 1 µM)?
A: 57.7%

Q: What about the viability, T/C (second compound 3.16 µM, first compound 3.16 µM) of the same molecule?
A: 2.51%

Q: What about the viability, T/C (second compound 3.16 µM, first compound 10 µM) of the same molecule?
A: 1.72%

Q: And the viability, T/C (second compound 10 µM, first compound 0.0316 µM)?
A: 83.7%

Q: What about the viability, T/C (second compound 10 µM, first compound 0.1 µM) of the same molecule?
A: 81.1%

Q: And the viability, T/C (second compound 10 µM, first compound 0.316 µM)?
A: 69.8%

Q: And the viability, T/C (second compound 10 µM, first compound 1 µM)?
A: 35.9%

Q: And the viability, T/C (second compound 10 µM, first compound 3.16 µM)?
A: 2.29%

Q: What about the viability, T/C (second compound 10 µM, first compound 10 µM) of the same molecule?
A: 2.09%

Reference: PubChem BioAssay AID1963432 (Molecular Pharmacology Branch, DTP, NCI, 2024)
